Measured values reported in patent US11103564B2, “Compositions for the inhibition of Giardia lamblia” (INSTITUT NATIONAL DE LA RECHERCHE AGRONOMIQUE, priority 2014, dated 2021).
Like-named read-outs stand apart in the source and are kept apart here.

Legend:
G. lamblia trophozoites [1] = test: In vitro G. lamblia growth inhibition assay; type: cell-based, Giardia lamblia; conditions: for IC50: KM-FCS; for inhibitory activity on G. lamblia growth: KM-FCS culture medium, without BSH
[2] = system: Giardia trophozoite cultures; test: Screening of lactobacilli strain supernatants for G. lamblia growth inhibition; type: cell-based, Giardia lamblia; conditions: supernatant, 24 h at 37° C., with bovine bile 0.6 g/L
Method: The inhibitory effect on G. lamblia growth of different lactobacilli strains was screened (cf. table 5). Bacterial supernatant was co-incubated for 24 h at 37° C. with Giardia trophozoite cultures (triplicates), with or without bovine bile (0.6 g/L). […] Table 5 indicates the corresponding internal and official references of the bacterial strains, and bibliographic references.

G. lamblia trophozoites [3] = test: Effect of recombinant LjLa1 BSH on Giardia trophozoites cultures; type: cell-based, Giardia lamblia
[4] = type: biochemical
[5] = BSH activity on taurodeoxycholic / glycodeoxycholic LB agar; type: biochemical; conditions: taurodeoxycholic (0.3%) and glycodeoxycholic (0.3%) LB agar, 48 h at 37° C.
G. lamblia WB clone C6 = test: In vivo effect of BSH-47 against G. lamblia in neonatal mice; conditions: daily gavage day 10 to 15, vs PBS
Method: FIG. 13: G. lamblia trophozoites count in the small intestine. Mice were challenged with the trophozoites of G. lamblia WB clone C6 (10^5 trophozoites per animal) at day 10 Animals were treated either with PBS or BSH-47 at 1 μg/ml (0.5 μg per mice), 10 μg/ml (5 μg per mice) or 100 μg/ml (50μg/mice) by daily intragastric gavage until day 15 (n=10 to 11/group). Values are mean±SEM; p<0.05.
Solutions of recombinant BSH-47 solutions (1 μg/ml, 10 μg/ml and 100 μg/ml diluted in NaHCO3 16.4%) were thawed and daily administered by intragastric gavage to neonatal mice (dose were respectively […] per mice) from day 10 to day 15 (day of sacrifice). Control animals received PBS instead of BSH.

[6] = absence of LjLa1sn, trophozoites growth inhibition, read-out: IC50 +/− SD, with culture medium only
[7] = presence of LjLa1sn, read-out: IC50 +/− SD, with bacterial spent culture medium
[8] = Giardia duodenalis, absence of LjLa1sn, trophozoites growth inhibition, read-out: IC50 +/− SD, with culture medium only
[9] = Giardia duodenalis, presence of LjLa1sn, read-out: IC50 +/− SD, with bacterial spent culture medium
[10] = 0.0001 μg/ml to 10 μg/ml, presence of bovine bile (0.06 g/L)

Q: Which IC50 (G. lamblia trophozoites [1]; [6]) does the source give for `C[C@H](CCC(=O)O)[C@H]1CC[C@H]2[C@@H]3[C@H](O)C[C@@H]4C[C@H](O)CC[C@]4(C)[C@H]3C[C@H](O)[C@]12C` [C, Cholate] here?
A: > 400 µM

Q: What about the IC50 (G. lamblia trophozoites [1]; [7]) of the same molecule?
A: > 400 µM

Q: Which results are given for `C[C@H](CCC(=O)O)[C@H]1CC[C@H]2[C@@H]3[C@H](O)C[C@@H]4C[C@H](O)CC[C@]4(C)[C@H]3CC[C@]12C` [CDC, Chenodesoxycholate]?
A: IC50 (G. lamblia trophozoites [1]; [8]): 147 µM; IC50 (G. lamblia trophozoites [1]; [9]): 118 µM

Q: Which IC50 (G. lamblia trophozoites [1]; [8]) does the source give for `CC(=O)O[C@H]1C[C@@]2(C)[C@@H](C[C@@H](O)[C@H]3[C@@]4(C)CC[C@@H](O)[C@@H](C)[C@@H]4CC[C@@]32C)/C1=C(\CCC=C(C)C)C(=O)O` [FA, Fusidic acid] here?
A: 26 µM

Q: Which IC50 (G. lamblia trophozoites [1]; [8]) does the source give for `C[C@H](CCC(=O)NCC(=O)O)[C@H]1CC[C@H]2[C@@H]3[C@H](O)C[C@@H]4C[C@H](O)CC[C@]4(C)[C@H]3C[C@H](O)[C@]12C` [GC, Glycocholate] here?
A: > 400 µM

Q: What about the IC50 (G. lamblia trophozoites [1]; [9]) of the same molecule?
A: > 400 µM

Q: With `C[C@H](CCC(=O)NCC(=O)O)[C@H]1CC[C@H]2[C@@H]3[C@H](O)C[C@@H]4C[C@H](O)CC[C@]4(C)[C@H]3CC[C@]12C` [GCDC, Glycochenodesoxycholate] as the molecule, how does the IC50 (G. lamblia trophozoites [1]; [8]) read?
A: > 400 µM

Q: What about the IC50 (G. lamblia trophozoites [1]; [9]) of the same molecule?
A: 110 µM

Q: And the “inhibitory activity on G. lamblia growth” value (G. lamblia trophozoites [1])?
A: no inhibitory activity

Q: With `C[C@H](CCC(=O)NCC(=O)O)[C@H]1CC[C@H]2[C@@H]3CC[C@@H]4C[C@H](O)CC[C@]4(C)[C@H]3C[C@H](O)[C@]12C` [GDC, Glycodesoxycholate] as the molecule, how does the IC50 (G. lamblia trophozoites [1]; [8]) read?
A: > 400 µM

Q: And the IC50 (G. lamblia trophozoites [1]; [9])?
A: 104 µM

Q: And the “inhibitory activity on G. lamblia growth” value (G. lamblia trophozoites [1])?
A: no inhibitory activity

Q: Which IC50 (G. lamblia trophozoites [1]; [8]) does the source give for `C[C@H](CCC(=O)NCCS(=O)(=O)O)[C@H]1CC[C@H]2[C@@H]3[C@H](O)C[C@@H]4C[C@H](O)CC[C@]4(C)[C@H]3CC[C@]12C` [TCDC, Taurochenodesoxycholate] here?
A: > 400 µM

Q: What about the IC50 (G. lamblia trophozoites [1]; [9]) of the same molecule?
A: 115 µM

Q: What about the “inhibitory activity on G. lamblia growth” value (G. lamblia trophozoites [1]) of the same molecule?
A: no inhibitory activity

Q: With `C[C@H](CCC(=O)NCCS(=O)(=O)O)[C@H]1CC[C@H]2[C@@H]3CC[C@@H]4C[C@H](O)CC[C@]4(C)[C@H]3C[C@H](O)[C@]12C` [TDC, Taurodesoxycholate] as the molecule, how does the “inhibitory activity on G. lamblia growth” value (G. lamblia trophozoites [1]) read?
A: no inhibitory activity

Q: And the IC50 (G. lamblia trophozoites [1]; [6])?
A: > 400 µM

Q: And the IC50 (G. lamblia trophozoites [1]; [7])?
A: 79 µM

Q: For Desoxycholate [DC], which IC50 (G. lamblia trophozoites [1]; [6]) is on record?
A: 132 µM

Q: What about the IC50 (G. lamblia trophozoites [1]; [7]) of the same molecule?
A: 117 µM

Q: Which “inhibitory effect on G. lamblia growth” value [2] does the source give for Lactobacillus acidophilus here?
A: potent inhibitors

Q: With Lactobacillus reuteri as the molecule, how does the “inhibitory effect on G. lamblia growth” value [2] read?
A: potent inhibitors

B1: BSH-56: recombinant L. johnsonii La1 bile-salt hydrolase LJ0056 produced as BSH-47 (protein)
chain: MCTGLRFTDDQGNLYFGRNLDVGQDYGEGVIITPRNYPLPYKFLDNTTTKKAVIGMGIVVDGYPSYFDCYNEDGLGIAGLNFPHFAKFSDGPIDGKINLASYEIMLWVTQNFTHVSEVKEALKNVNLVNEAINTSFAVAPLHWIISDSDEAIIVEVSKQYGMKVFDDKVGVLTNSPDFNWHLTNLGNYTGLNPHDATAQSWNGQKVAPWGVGTGSLGLPGDSIPADRFVKAAYLNVNYPTAKGEKANVAKFFNILKSVAMIKGSVVNDQGKDEYTVYTACYSSGSKTYYCNFEDDFELKTYKLDDHTMNSTSLVTY
modifications: Lactobacillus johnsonii BSH-56
Q: With B1 as the molecule, how does the “inhibitory effect on G. lamblia trophozoites” value (G. lamblia trophozoites [3]; [10]) read?
A: strong inhibitory effects

Q: What about the “inhibitory effect on G. lamblia trophozoites” value (G. lamblia trophozoites [3]; without bovine bile) of the same molecule?
A: no inhibitory effect

Q: What about the Specific activity ([4]; glycine release) of the same molecule?
A: 0.536 μmole of glycine/5 min at 37°

Q: And the Specific activity ([4]; taurine release)?
A: 2.604 μmole taurine/5 min at 37° C./

B2: BSH-47: recombinant L. johnsonii La1 bile-salt hydrolase LJ1147 produced in E. coli, His-Tag purified (protein)
chain: MCTSILYSPKDNYFGRNLDYEIAYGQKVVITPRNYQLNYRHLPTQDTHYAMIGVSVVANDYPLYCDAINEKGLGIAGLNFTGPGKYFSVDESKKNVTSFELIPYLLSNCETIEDVKKLLSETNITDESFSKDLPVTTLHWLMGDKSGKSIVIESTETGLHVYDNPVNTLTNNPVFPAQVETLANFASVSPAQPKNTLVPNADINLYSRGLGTHHLPGGTDSNSRFIKASFVLAHSPKGNDEVENVTNFFHVLHSVEQAKGTDEVEDNVFEFTMYSDCMNLDKGILYFTTYDNNQINAVDMNNEDLGTSDLITYELFKDQAIKFEN
modifications: His-tag; Lactobacillus johnsonii BSH-47
notes: recombinant L. johnsonii La1 bile-salt hydrolase LJ1147 produced in E. coli, His-Tag purified
Q: Which “substrate specificity on agar” value [5] does the source give for B2 here?
A: taurospecific

Q: What about the “parasite load in the small intestine” value (G. lamblia WB clone C6; 100 μg/ml group) of the same molecule?
A: significant reduction

Q: What about the “trophozoites load in the small intestine” value (G. lamblia WB clone C6; all groups: 1, 10 and 100 μg/ml) of the same molecule?
A: reduction in trophozoites load

Q: And the “inhibitory effect on G. lamblia trophozoites” value (G. lamblia trophozoites [3]; [10])?
A: strong inhibitory effects

Q: What about the “effect on Giardia trophozoites cultures” value (G. lamblia trophozoites [3]; 0.96 U, with bovine bile (0.06 g/L)) of the same molecule?
A: exhibits an inhibiting effect

Q: What about the “inhibitory effect on G. lamblia trophozoites” value (G. lamblia trophozoites [3]; without bovine bile) of the same molecule?
A: no inhibitory effect

Q: And the Specific activity ([4]; glycine release)?
A: 0.066 μmole of glycine/5 min at 37°

Q: And the Specific activity ([4]; taurine release)?
A: 0.717 μmole taurine/5 min at 37° C./
